Assay results published in US10954214B2 (Janssen Pharmaceutica NV, priority 2016, dated 2021).

What was measured:
OCI-Ly3 cells = assay: 4-day proliferation assay, OCI-Ly3; assay type: cell-based, human; conditions: Homo sapiens, 96 h, 4 days incubation, CellTiterGLO, read-out: Anti-proliferation: OCI-LY-3 IC50
Method: (§1) To assess anti-proliferative effects, MALT1 inhibitor test compounds were tested in 4-day proliferation assays using three different DLBCL cell lines.
(§2) Cells should be kept between 0.5-2.5 million cells per mL during culturing and cells should be supplemented every 2-3 days with fresh 50 μM beta-mercaptoenthanol. No beta-mercaptoethanol is used during the proliferation assay. OCI-Ly7 cells were propagated in IMDM (ThermoFisher) supplemented with 10% fetal bovine serum (HyClone), 2 mM L-glutamine (Sigma Aldrich) and 50 μg/mL Gentamycin. Cell passage numbers should not exceed 30 (for OCI-Ly3 cells with passage number lower than 10 were used).
(§3) 10,000 TMD8, 10,000 OCI-Ly3 or 2,000 OCI-Ly7 cells were seeded in 100 μL media per well and incubated for 4 days at 37° C. and 5% CO2. Cell plating numbers were chosen based on growth curves to ensure linear cell growth. After 4 days of incubation 50 μL CellTiterGLO reagent (Promega) were added to each well and luminescence was measured on the Envision after 10 min of incubation at room temperature.
(§4) LC=median of the low control values
(§5) An estimate of the slope of the plot in terms of the Hill coefficient was also obtained.

[1] = system: IL6 secretion by TMD8 ABC-DLBCL cells; assay: Human IL6 Mesoscale assay (TMD-8); assay type: cell-based; conditions: Homo sapiens, TMD8; TMD-8 cells, 24 h
How it was run: (§6)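 Compounds tested from 15 μM to 58.6 nM (twofold, 9 concentrations) on 100,000 cells per well over 24 h at 37° C, without beta-mercaptoethanol. Secreted cytokine in supernatant detected by MSD electrochemiluminescence; scaling used DMSO as maximum and RN486 as full inhibition.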

TMD8 cells = assay: 4-day proliferation assay, TMD8; assay type: cell-based; conditions: Homo sapiens, 96 h, 4 days incubation, CellTiterGLO, read-out: Anti-proliferation: TMD-8 IC50
Method: as §1, §2, §3, §4, §5

[2] = system: IL10 secretion by TMD8 ABC-DLBCL cells; assay: Human IL10 Mesoscale assay (TMD-8); assay type: cell-based; conditions: Homo sapiens, TMD8; TMD-8 cells, 24 h
How it was run: as §6

[3] = target: full-length MALT1 protein (Strep-MALT1(1-824)-His) (Homo sapiens (Human), UniProt Q9UDY8); assay: MALT1 Biochemical Protease Assay (Ac-LRSR-AMC substrate); conditions: 10 nM FL MALT1, 200 μM Ac-LRSR-AMC, 4 h at RT; read-out: MALT1_Biochemical activity (Ac-LRSR-amc) IC50
Chain of full-length MALT1 protein (Strep-MALT1(1-824)-His) (Q9UDY8 whole entry): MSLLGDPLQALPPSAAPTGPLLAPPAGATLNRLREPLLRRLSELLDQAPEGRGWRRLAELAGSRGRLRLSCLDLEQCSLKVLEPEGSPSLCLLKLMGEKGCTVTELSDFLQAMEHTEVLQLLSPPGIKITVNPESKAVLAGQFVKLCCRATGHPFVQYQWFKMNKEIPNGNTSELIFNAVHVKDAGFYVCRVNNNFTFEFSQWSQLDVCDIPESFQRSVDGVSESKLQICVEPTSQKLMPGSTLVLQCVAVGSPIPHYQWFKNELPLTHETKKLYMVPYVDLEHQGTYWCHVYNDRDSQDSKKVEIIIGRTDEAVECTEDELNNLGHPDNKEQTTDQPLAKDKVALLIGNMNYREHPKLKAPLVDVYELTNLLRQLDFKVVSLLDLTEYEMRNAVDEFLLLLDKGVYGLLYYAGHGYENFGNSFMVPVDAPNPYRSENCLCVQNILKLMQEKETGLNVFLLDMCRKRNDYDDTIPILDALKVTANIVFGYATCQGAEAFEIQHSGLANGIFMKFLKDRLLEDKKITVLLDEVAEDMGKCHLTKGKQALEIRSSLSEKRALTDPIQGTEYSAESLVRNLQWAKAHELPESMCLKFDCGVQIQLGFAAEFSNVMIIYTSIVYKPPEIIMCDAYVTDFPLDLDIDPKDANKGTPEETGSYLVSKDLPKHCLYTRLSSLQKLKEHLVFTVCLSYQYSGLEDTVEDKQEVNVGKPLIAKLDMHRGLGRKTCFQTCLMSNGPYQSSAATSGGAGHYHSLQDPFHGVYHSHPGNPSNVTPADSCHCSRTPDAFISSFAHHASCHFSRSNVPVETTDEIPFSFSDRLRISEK
How it was run: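 Full-length MALT1 pre-incubated with compounds (30 μM to 0.5 nM, 11 threefold steps) for 50 min at RT. After Ac-LRSR-AMC was added, the reaction ran 4 h at RT and AMC fluorescence was read. IC50 and Hill slope from curve fitting against no-enzyme and no-compound controls.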

Row | Compound | IC50 (OCI-Ly3 cells) | IC50 [1] | IC50 (TMD8 cells) | IC50 [2] | IC50 [3]
1 | O=C(Nc1cnc(-n2ncc(CO)n2)c(Cl)c1)c1cnn(-c2cccc3ncccc23)c1C(F)(F)F [Cpd 136, N-(5-chloro-6-(4-(hydroxymethyl)-2H-1,2,3-triazol-2-yl)pyridin-3-yl)-1-(quinolin-5-yl)-5-(trifluoromethyl)-1H-pyrazole-4-carboxamide] | 414 nM | 45 nM | 2290 nM | 31 nM | 21 nM
2 | Cn1ccc(-c2ncc(NC(=O)c3cnn(-c4cncc5ccccc45)c3C(F)(F)F)cc2C#N)n1 [Cpd 78, N-(5-cyano-6-(1-methyl-1H-pyrazol-3-yl)pyridin-3-yl)-1-(isoquinolin-4-yl)-5-(trifluoromethyl)-1H-pyrazole-4-carboxamide] | ~490 nM | 81 nM | 7590 nM | 112 nM | 55 nM
3 | N#Cc1cc(NC(=O)c2cnn(-c3ccnc4sccc34)c2C(F)(F)F)cnc1-n1nccn1 [Cpd 126, N-(5-cyano-6-(2H-1,2,3-triazol-2-yl)pyridin-3-yl)-1-(thieno[2,3-b]pyridin-4-yl)-5-(trifluoromethyl)-1H-pyrazole-4-carboxamide] | 135 nM | 21 nM | 794 nM | 43 nM | 15 nM
4 | N#Cc1nccc2c(-n3ncc(C(=O)Nc4cnc(-n5nccn5)c(Cl)c4)c3C(F)(F)F)cccc12 [Cpd 411, N-(5-chloro-6-(2H-1,2,3-triazol-2-yl)pyridin-3-yl)-1-(1-cyanoisoquinolin-5-yl)-5-(trifluoromethyl)-1H-pyrazole-4-carboxamide] | 486 nM | 2510 nM | 871 nM | 2340 nM | 33 nM
5 | O=C(Nc1cnc(OC2CC2)c(Cl)c1)c1cnn(-c2cccc3ncccc23)c1C(F)(F)F [Cpd 79, N-(5-Chloro-6-cyclopropoxypyridin-3-yl)-1-(quinolin-5-yl)-5-(trifluoromethyl)-1H-pyrazole-4-carboxamide] | ~2340 nM | ~340 nM | 8320 nM | 251 nM | 98 nM
6 | Cn1nnc(-c2ncc(NC(=O)c3cnn(-c4cccc5ncccc45)c3C(F)(F)F)cc2C#N)n1 [Cpd 149, N-(5-cyano-6-(2-methyl-2H-tetrazol-5-yl)pyridin-3-yl)-1-(quinolin-5-yl)-5-(trifluoromethyl)-1H-pyrazole-4-carboxamide] | 759 nM | 912 nM | 4360 nM | 2630 nM | 29 nM
7 | N#Cc1cc(NC(=O)c2cnn(-c3nccn4cccc34)c2C(F)(F)F)cnc1-n1nccn1 [Cpd 148, N-(5-cyano-6-(2H-1,2,3-triazol-2-yl)pyridin-3-yl)-1-(pyrrolo[1,2-a]pyrazin-1-yl)-5-(trifluoromethyl)-1H-pyrazole-4-carboxamide] | 692 nM | 105 nM | 3800 nM | 112 nM | 32 nM
8 | N#Cc1cc(NC(=O)c2cnn(-c3cnc(N)c4ccccc34)c2C(F)(F)F)cnc1-n1nccn1 [Cpd 156, 1-(1-aminoisoquinolin-4-yl)-N-(5-cyano-6-(2H-1,2,3-triazol-2-yl)pyridin-3-yl)-5-(trifluoromethyl)-1H-pyrazole-4-carboxamide] | 776 nM | 2510 nM | 5250 nM | 2340 nM | 22 nM
9 | N#Cc1cc(NC(=O)c2cnn(-c3cccc4ncccc34)c2C(F)(F)F)ccc1-n1nccn1 [Cpd 133, N-(3-cyano-4-(2H-1,2,3-triazol-2-yl)phenyl)-1-(quinolin-5-yl)-5-(trifluoromethyl)-1H-pyrazole-4-carboxamide] | 273 nM | 126 nM | 3310 nM | 54 nM | 19 nM
10 | [2H]c1ccc2c(-n3ncc(C(=O)Nc4cnc(-n5nccn5)c(Cl)c4)c3C(F)(F)F)cccc2n1 [Cpd 131, N-(5-chloro-6-(2H-1,2,3-triazol-2-yl)pyridin-3-yl)-1-(2-Dquinolin-5-yl)-5-(trifluoromethyl)-1H-pyrazole-4-carboxamide] | 265 nM | 56 nM | 2630 nM | 21 nM | 17 nM
